{"source": "patent US11932658B2", "about": "(BRISTOL-MYERS SQUIBB COMPANY, priority 2016, dated 2024)"}
{"biological_target": "T1, PAR4 (Homo sapiens, UniProt Q96RI0)", "T1 construct": "expressed in transfected cells; host or cells: HEK293 PAR4 Clone 1.2A (BMS Arctic ID 383940)", "T1 sequence (Q96RI0 18-385)": "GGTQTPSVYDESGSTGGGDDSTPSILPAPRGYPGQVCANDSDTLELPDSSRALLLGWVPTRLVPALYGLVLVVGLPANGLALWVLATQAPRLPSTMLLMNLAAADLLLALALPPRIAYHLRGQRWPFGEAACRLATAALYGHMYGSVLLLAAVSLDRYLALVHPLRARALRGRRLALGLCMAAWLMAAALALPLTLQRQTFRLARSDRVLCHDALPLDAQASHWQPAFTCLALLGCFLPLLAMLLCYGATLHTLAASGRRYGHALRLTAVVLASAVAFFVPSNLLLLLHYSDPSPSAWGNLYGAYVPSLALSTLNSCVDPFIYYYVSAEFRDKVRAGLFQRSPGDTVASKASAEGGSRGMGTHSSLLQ", "test": "PAR4 FLIPR assay (antagonism of agonist peptide-induced calcium mobilization)", "assay_type": "cell-based", "in_short": "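Antagonism was taken as block of calcium mobilization evoked by the agonist peptide H-Ala-Phe(4-F)-Pro-Gly-Trp-Leu-Val-Lys-Asn-[…]-NH2, added after 30 min room-temperature compound preincubation in dye-loaded PAR4-transfected HEK293 cells (endogenous PAR1). Fluorescence was read on FDSS, with compound addition alone used as the agonist counter-screen; values come from 11-point concentration-response curves.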", "units": {"IC50": "nM"}}
{"smiles": "COc1cnc2c(-c3nc4c(C)cc5c(c4s3)OCC(COC(=O)Nc3ccc(C)nc3)O5)cc(C)cc2n1", "note": "(stereo not shown) [Example 120, (2-(2-methoxy-7-methylquinoxalin-5-yl)-4-methyl-7,8-dihydro-[1,4]dioxino[2′,3′:3,4]benzo[1,2-d]thiazol-7-yl)methyl (6-methylpyridin-3-yl)carbamate]", "IC50": 0.9}
{"smiles": "COc1cnc2c(-c3nc4c(C)cc5c(c4s3)OCC(COC(=O)Nc3ccc(Oc4ccccc4)nc3)O5)cc(C)cc2n1", "note": "(stereo not shown) [Example 121, (2-(2-methoxy-7-methylquinoxalin-5-yl)-4-methyl-7,8-dihydro-[1,4]dioxino [2′,3′:3,4]benzo[1,2-d]thiazol-7-yl)methyl (6-phenoxypyridin-3-yl)carbamate]", "IC50": 8.2}
{"smiles": "COc1cnc2c(-c3nc4c(C)cc5c(c4s3)OCC(COC(=O)Nc3cnc(F)c(C)c3)O5)cc(C)cc2n1", "note": "(stereo not shown) [Example 122, (2-(2-methoxy-7-methylquinoxalin-5-yl)-4-methyl-7,8-dihydro-[1,4]dioxino[2′,3′:3,4]benzo [1,2-d]thiazol-7-yl)methyl (6-fluoro-5-methylpyridin-3-yl)carbamate]", "IC50": 2.5}
{"smiles": "COc1cnc2c(-c3nc4c(C)cc5c(c4s3)OCC(COC(=O)Nc3ccc(O)nc3)O5)cc(C)cc2n1", "note": "(stereo not shown) [Example 123, (2-(2-methoxy-7-methylquinoxalin-5-yl)-4-methyl-7,8-dihydro-[1,4]dioxino[2′,3′:3,4]benzo [1,2-d]thiazol-7-yl)methyl (6-hydroxypyridin-3-yl)carbamate]", "IC50": 18}
{"smiles": "COc1cnc2c(-c3nc4c(C)cc5c(c4s3)OCC(COC(=O)Nc3cncc(C)c3)O5)cc(C)cc2n1", "note": "(stereo not shown) [Example 124, (2-(2-methoxy-7-methylquinoxalin-5-yl)-4-methyl-7,8-dihydro-[1,4]dioxino[2′,3′:3,4]benzo[1,2-d]thiazol-7-yl)methyl (5-methylpyridin-3-yl)carbamate]", "IC50": 3.2}
{"smiles": "COc1cnc2c(-c3nc4c(C)cc5c(c4s3)OCC(COC(=O)Nc3ccc(-c4ccccc4)nc3)O5)cc(C)cc2n1", "note": "(stereo not shown) [Example 125, (2-(2-methoxy-7-methylquinoxalin-5-yl)-4-methyl-7,8-dihydro-[1,4]dioxino[2′,3′:3,4]benzo[1,2-d]thiazol-7-yl)methyl (6-phenylpyridin-3-yl)carbamate]", "IC50": 35}
{"smiles": "COc1cnc2c(-c3nc4c(C)cc5c(c4s3)OCC(COC(=O)Nc3cncc(-c4ccccc4)c3)O5)cc(C)cc2n1", "note": "(stereo not shown) [Example 126, (2-(2-methoxy-7-methylquinoxalin-5-yl)-4-methyl-7,8-dihydro-[1,4]dioxino[2′,3′:3,4]benzo[1,2-d]thiazol-7-yl)methyl (5-phenylpyridin-3-yl)carbamate]", "IC50": 67}
{"smiles": "COc1cnc2c(-c3nc4c(C)cc5c(c4s3)OCC(COC(=O)Nc3ccc(-c4cccs4)nc3)O5)cc(C)cc2n1", "note": "(stereo not shown) [Example 127, (2-(2-methoxy-7-methylquinoxalin-5-yl)-4-methyl-7,8-dihydro-[1,4]dioxino[2′,3′:3,4]benzo[1,2-d]thiazol-7-yl)methyl (6-(thiophen-2-yl)pyridin-3-yl) carbamate]", "IC50": 130}
{"smiles": "COc1cnc2c(-c3nc4c(C)cc5c(c4s3)OCC(COC(=O)Nc3ccc(OCCN(C)C)nc3)O5)cc(C)cc2n1", "note": "(stereo not shown) [Example 128, (2-(2-methoxy-7-methylquinoxalin-5-yl)-4-methyl-7,8-dihydro-[1,4]dioxino[2′,3′:3,4]benzo[1,2-d]thiazol-7-yl)methyl (6-(2-(dimethylamino)ethoxy)pyridin-3-yl)carbamate]", "IC50": 4}
{"smiles": "COc1cnc2c(-c3nc4c(C)cc5c(c4s3)OCC(COC(=O)Nc3cnc4c(c3)ncn4C)O5)cc(C)cc2n1", "note": "(stereo not shown) [Example 129, (2-(2-methoxy-7-methylquinoxalin-5-yl)-4-methyl-7,8-dihydro-[1,4]dioxino[2′,3′:3,4]benzo[1,2-d]thiazol-7-yl)methyl (3-methyl-3H-imidazo [4,5-b]pyridin-6-yl)carbamate]", "IC50": 1.6}
{"smiles": "COc1cnc2c(-c3nc4c(C)cc5c(c4s3)OCC(COC(=O)Nc3ccc(-n4cnc(C)n4)nc3)O5)cc(C)cc2n1", "note": "(stereo not shown) [Example 130, (2-(2-methoxy-7-methylquinoxalin-5-yl)-4-methyl-7,8-dihydro-[1,4]dioxino[2′,3′:3,4]benzo[1,2-d]thiazol-7-yl)methyl (6-(3-methyl-1H-1,2,4-triazol-1-yl)pyridin-3-yl)carbamate]", "IC50": 1.5}
{"smiles": "COc1cnc2c(-c3nc4c(C)cc5c(c4s3)OCC(COC(=O)Nc3ccc(C(F)(F)F)nc3)O5)cc(C)cc2n1", "note": "(stereo not shown) [Example 131, (2-(2-methoxy-7-methylquinoxalin-5-yl)-4-methyl-7,8-dihydro-[1,4]dioxino[2′,3′:3,4]benzo[1,2-d]thiazol-7-yl)methyl (6-(trifluoromethyl)pyridin-3-yl)carbamate]", "IC50": 2}
{"smiles": "COc1cnc2c(-c3nc4c(C)cc5c(c4s3)OCC(COC(=O)Nc3cncc(Cl)c3)O5)cc(C)cc2n1", "note": "(stereo not shown) [Example 132, (2-(2-methoxy-7-methylquinoxalin-5-yl)-4-methyl-7,8-dihydro-[1,4]dioxino[2′,3′:3,4]benzo[1,2-d]thiazol-7-yl)methyl (5-chloropyridin-3-yl)carbamate]", "IC50": 3.9}
{"smiles": "CCOc1ccc(NC(=O)OCC2COc3c(cc(C)c4nc(-c5cc(C)cc6nc(OC)cnc56)sc34)O2)cn1", "note": "(stereo not shown) [Example 133, (2-(2-methoxy-7-methylquinoxalin-5-yl)-4-methyl-7,8-dihydro-[1,4]dioxino[2′,3′:3,4]benzo[1,2-d]thiazol-7-yl)methyl (6-ethoxypyridin-3-yl)carbamate]", "IC50": 150}
{"smiles": "COC(=O)c1cc(NC(=O)OCC2COc3c(cc(C)c4nc(-c5cc(C)cc6nc(OC)cnc56)sc34)O2)ccn1", "note": "(stereo not shown) [Example 134, methyl 4-((((2-(2-methoxy-7-methylquinoxalin-5-yl)-4-methyl-7,8-dihydro-[1,4]dioxino[2′,3′:3,4]benzo[1,2-d]thiazol-7-yl)methoxy)carbonyl)amino) picolinate]", "IC50": 3.3}
{"smiles": "COc1cnc2c(-c3nc4c(C)cc5c(c4s3)OCC(COC(=O)Nc3cncc(C(F)(F)F)c3)O5)cc(C)cc2n1", "note": "(stereo not shown) [Example 135]", "IC50": 1.4}
{"smiles": "COc1cnc2c(-c3nc4c(C)cc5c(c4s3)OCC(COC(=O)Nc3ccc(N4CCN(C(=O)OC(C)(C)C)CC4)nc3)O5)cc(C)cc2n1", "note": "(stereo not shown) [Example 136, tert-butyl 4-(5-((((2-(2-methoxy-7-methylquinoxalin-5-yl)-4-methyl-7,8-dihydro-[1,4]dioxino[2′,3′:3,4]benzo[1,2-d]thiazol-7-yl)methoxy)carbonyl)amino)pyridin-2-yl) piperazine-1-carboxylate]", "IC50": 210}
{"smiles": "COc1cnc2c(-c3nc4c(C)cc5c(c4s3)OCC(COC(=O)Nc3ccc(N4CCCC4)nc3)O5)cc(C)cc2n1", "note": "(stereo not shown) [Example 137, (2-(2-methoxy-7-methylquinoxalin-5-yl)-4-methyl-7,8-dihydro-[1,4]dioxino[2′,3′:3,4]benzo[1,2-d]thiazol-7-yl)methyl (6-(pyrrolidin-1-yl)pyridin-3-yl)carbamate]", "IC50": 6.1}
{"smiles": "COC(=O)c1cncc(NC(=O)OCC2COc3c(cc(C)c4nc(-c5cc(C)cc6nc(OC)cnc56)sc34)O2)c1", "note": "(stereo not shown) [Example 138, methyl 5-((((2-(2-methoxy-7-methylquinoxalin-5-yl)-4-methyl-7,8-dihydro-[1,4]dioxino[2′,3′:3,4]benzo[1,2-d]thiazol-7-yl)methoxy)carbonyl)amino)nicotinate]", "IC50": 3.4}
{"smiles": "COc1cnc2c(-c3nc4c(C)cc5c(c4s3)OCC(COC(=O)Nc3cnc4c(c3)CN(C(=O)OC(C)(C)C)CC4)O5)cc(C)cc2n1", "note": "(stereo not shown) [Example 139, tert-butyl 3-((((2-(2-methoxy-7-methylquinoxalin-5-yl)-4-methyl-7,8-dihydro-[1,4]dioxino[2′,3′:3,4]benzo[1,2-d]thiazol-7-yl)methoxy)carbonyl)amino)-7,8-dihydro-1,6-naphthyridine-6(5H)-carboxylate]", "IC50": 2.1}
{"smiles": "COc1cnc2c(-c3nc4c(C)cc5c(c4s3)OCC(COC(=O)Nc3ccc(NC(C)=O)nc3)O5)cc(C)cc2n1", "note": "(stereo not shown) [Example 140, (2-(2-methoxy-7-methylquinoxalin-5-yl)-4-methyl-7,8-dihydro-[1,4]dioxino[2′,3′:3,4]benzo[1,2-d]thiazol-7-yl)methyl (6-acetamidopyridin-3-yl)carbamate]", "IC50": 230}
{"smiles": "COc1cnc2c(-c3nc4c(C)cc5c(c4s3)OCC(COC(=O)Nc3ccc(N)nc3)O5)cc(C)cc2n1", "note": "(stereo not shown) [Example 141, (2-(2-methoxy-7-methylquinoxalin-5-yl)-4-methyl-7,8-dihydro-[1,4]dioxino[2′,3′:3,4]benzo[1,2-d]thiazol-7-yl)methyl (6-aminopyridin-3-yl)carbamate]", "IC50": 170}
{"smiles": "COc1cnc2c(-c3nc4c(C)cc5c(c4s3)OCC(COC(=O)Nc3cnc4[nH]ccc4c3)O5)cc(C)cc2n1", "note": "(stereo not shown) [Example 142, (2-(2-methoxy-7-methylquinoxalin-5-yl)-4-methyl-7,8-dihydro-[1,4]dioxino[2′,3′:3,4]benzo[1,2-d]thiazol-7-yl)methyl 1H-pyrrolo[2,3-b]pyridin-5-ylcarbamate]", "IC50": 2.9}
{"smiles": "COCc1cnc2c(-c3nc4cc5c(cc4s3)OCO5)cc(C)cc2n1", "note": "[Example 143, 6-(2-(methoxymethyl)-7-methylquinoxalin-5-yl)-[1,3]dioxolo[4′,5′:4,5]benzo[1,2-d]thiazole]", "IC50": 5.5}
{"smiles": "COc1cnc2c(-c3nc4ccc5c(c4s3)C[C@H](COC(=O)Nc3cnc(C)nc3)O5)cc(C)cc2n1", "note": "[Example 144, (R)-(2-(2-methoxy-7-methylquinoxalin-5-yl)-7,8-dihydrobenzofuro[5,4-d]thiazol-7-yl)me thyl (2-methylpyrimidin-5-yl)carbamate]", "IC50": 1.2}
